In patent publication US6525059B1, “Substituted pyrazoles as p38 kinase inhibitors” (G. D. Searle & Company, priority 1998, dated 2003):

What follows are molecules tested against T1, human p38 kinase alpha (Homo sapiens, UniProt Q16539) (assay: p38 kinase in vitro assay, phosphorylation of biotinylated PHAS-I with gamma 32P-ATP). Details: read-out: P38 alpha kinase IC50.
T1 construct: The coding region of the human p38a cDNA was obtained by PCR-amplification from RNA isolated from the human monocyte cell line THP.1; GST (N); made in house; host or cells: E. coli DH10B
Format: biochemical
Protocol: The ability of compounds to inhibit human p38 kinase alpha was evaluated using two in vitro assay methods. In the first method activated human p38 kinase alpha phosphorylates a biotinylated substrate, PHAS-I (phosphorylated heat and acid stable protein-insulin inducible), in the presence of gamma ^32P-ATP (^32P-ATP). PHAS-I was biotinylated prior to the assay and provides a means of capturing the substrate which is phosphorylated during the assay. p38 Kinase was activated by MKK6. Compounds were tested in 10 fold serial dilutions over the range of 100 μM to 0.001 μM using 1% DMSO. Each concentration of inhibitor was tested in triplicate.
All reactions were carried out in 96 well polypropylene plates. Each reaction well contained 25 mM HEPES pH 7.5, 10 mM magnesium acetate and 50 μM unlabeled ATP. […] The reaction proceeded either for one hour or overnight at 30° C.
Following incubation, 20 μl of reaction mixture was transferred to a high capacity streptavidin coated filter plate (SAM-streptavidin-matrix, Promega) prewetted with phosphate buffered saline. […] Filter plates were air dried and 20 μl of scintillant was added. The plates were sealed and counted.

T1 sequence (Q16539 whole entry): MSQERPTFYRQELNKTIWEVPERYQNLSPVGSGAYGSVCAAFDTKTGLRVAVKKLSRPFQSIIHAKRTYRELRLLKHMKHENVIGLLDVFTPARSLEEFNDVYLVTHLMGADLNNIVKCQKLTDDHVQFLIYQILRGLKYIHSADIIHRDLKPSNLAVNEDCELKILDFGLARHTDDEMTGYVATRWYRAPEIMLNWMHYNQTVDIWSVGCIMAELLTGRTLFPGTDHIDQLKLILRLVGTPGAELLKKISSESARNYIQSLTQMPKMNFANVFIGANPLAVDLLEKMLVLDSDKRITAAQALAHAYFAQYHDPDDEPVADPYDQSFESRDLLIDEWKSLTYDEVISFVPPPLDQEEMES

Q: How did the IC50 turn out when `O=C(NCc1[nH]nc(-c2ccc(F)cc2)c1-c1ccncc1)c1cc(F)ccc1F` [Example B-0295] was run?
A: 820 nM

Q: With `O=C(NCc1[nH]nc(-c2ccc(F)cc2)c1-c1ccncc1)c1ccccc1F` [Example B-0297] as the molecule, how does the IC50 read?
A: 780 nM

Q: `CC(=O)OCC(=O)N[C@H](C)c1[nH]nc(-c2ccc(F)cc2)c1-c1ccncc1` [Example B-0353] was tested. Which IC50 did it give?
A: 1370 nM

Q: With `CC(=O)N[C@H](C)c1[nH]nc(-c2ccc(F)cc2)c1-c1ccncc1` [Example B-0359] as the molecule, how does the IC50 read?
A: 450 nM

Q: `C[C@@H](NC(=O)C1CC1)c1[nH]nc(-c2ccc(F)cc2)c1-c1ccncc1` [Example B-0361] was tested. Which IC50 did it give?
A: 330 nM

Q: Which IC50 does the source give for `COCC(=O)N[C@H](C)c1[nH]nc(-c2ccc(F)cc2)c1-c1ccncc1` [Example B-0366] here?
A: 700 nM

Q: `C[C@@H](NC(=O)c1ccc(F)c(F)c1F)c1[nH]nc(-c2ccc(F)cc2)c1-c1ccncc1` [Example B-0369] was tested. Which IC50 did it give?
A: 160 nM

Q: How did the IC50 turn out when `COc1ccc(CC(=O)N[C@H](C)c2[nH]nc(-c3ccc(F)cc3)c2-c2ccncc2)cc1OC` [Example B-0371] was run?
A: 490 nM

Q: How did the IC50 turn out when `C[C@@H](NC(=O)c1ccncc1)c1[nH]nc(-c2ccc(F)cc2)c1-c1ccncc1` [Example B-0378] was run?
A: 1100 nM

Q: With `COc1cccc(C(=O)N[C@H](C)c2[nH]nc(-c3ccc(F)cc3)c2-c2ccncc2)c1` [Example B-0380] as the molecule, how does the IC50 read?
A: 1410 nM

Q: For `CC(Oc1ccccc1)C(=O)N[C@H](C)c1[nH]nc(-c2ccc(F)cc2)c1-c1ccncc1` (stereo partly shown) [Example B-0381], which IC50 is on record?
A: 220 nM

Q: How did the IC50 turn out when `C[C@@H](NC(=O)c1cnc2ccccc2n1)c1[nH]nc(-c2ccc(F)cc2)c1-c1ccncc1` [Example B-0384] was run?
A: 4020 nM

Q: With `CCCS(=O)(=O)N[C@H](C)c1[nH]nc(-c2ccc(F)cc2)c1-c1ccncc1` [Example B-0393] as the molecule, how does the IC50 read?
A: 43 nM

Q: How did the IC50 turn out when `COc1ccc(S(=O)(=O)N[C@H](C)c2[nH]nc(-c3ccc(F)cc3)c2-c2ccncc2)cc1` [Example B-0397] was run?
A: 170 nM

Q: With `C[C@@H](NS(=O)(=O)c1cccs1)c1[nH]nc(-c2ccc(F)cc2)c1-c1ccncc1` [Example B-0398] as the molecule, how does the IC50 read?
A: 54 nM

Q: For `C[C@@H](NC(=O)Nc1ccccc1F)c1[nH]nc(-c2ccc(F)cc2)c1-c1ccncc1` [Example B-0410], which IC50 is on record?
A: 380 nM

Q: For `C[C@@H](NC(=O)NCCc1ccccc1)c1[nH]nc(-c2ccc(F)cc2)c1-c1ccncc1` [Example B-0416], which IC50 is on record?
A: 320 nM

Q: With `C[C@@H](NC(=O)N[C@H](C)c1[nH]nc(-c2ccc(F)cc2)c1-c1ccncc1)c1ccccc1` [Example B-0417] as the molecule, how does the IC50 read?
A: 910 nM

Q: `COc1ccc(NC(=O)N[C@H](C)c2[nH]nc(-c3ccc(F)cc3)c2-c2ccncc2)cc1` [Example B-0419] was tested. Which IC50 did it give?
A: 850 nM

Q: For `CCNC(=O)N[C@H](C)c1[nH]nc(-c2ccc(F)cc2)c1-c1ccncc1` [Example B-0421], which IC50 is on record?
A: 460 nM

Q: For `CC(=O)Nc1nc(C)c(S(=O)(=O)N[C@H](C)c2[nH]nc(-c3ccc(F)cc3)c2-c2ccncc2)s1` [Example B-0430], which IC50 is on record?
A: 290 nM

Q: `CC(NS(=O)(=O)CC12CCC(CC1=O)C2(C)C)c1[nH]nc(-c2ccc(F)cc2)c1-c1ccncc1` (stereo not shown) [Example B-0435] was tested. Which IC50 did it give?
A: 300 nM

Q: For `C[C@@H](NS(=O)(=O)c1cc(Cl)ccc1Cl)c1[nH]nc(-c2ccc(F)cc2)c1-c1ccncc1` [Example B-0438], which IC50 is on record?
A: < 100 nM

Q: `C[C@@H](NS(=O)(=O)c1cccc2c(N(C)C)cccc12)c1[nH]nc(-c2ccc(F)cc2)c1-c1ccncc1` [Example B-0444] was tested. Which IC50 did it give?
A: 1010 nM

Q: Which IC50 does the source give for `C[C@@H](NS(=O)(=O)c1ccc(Cl)cc1Cl)c1[nH]nc(-c2ccc(F)cc2)c1-c1ccncc1` [Example B-0448] here?
A: 400 nM

Q: For `CC(NS(=O)(=O)c1ccc(C(F)(F)F)cc1)c1[nH]nc(-c2ccc(F)cc2)c1-c1ccncc1` (stereo not shown) [Example B-0459], which IC50 is on record?
A: 99 nM

Q: How did the IC50 turn out when `CCc1ccc(S(=O)(=O)N[C@H](C)c2[nH]nc(-c3ccc(F)cc3)c2-c2ccncc2)cc1` [Example B-0460] was run?
A: 61 nM

Q: With `C[C@@H](NS(=O)(=O)c1ccc(Cl)s1)c1[nH]nc(-c2ccc(F)cc2)c1-c1ccncc1` [Example B-0473] as the molecule, how does the IC50 read?
A: 4 nM

Q: How did the IC50 turn out when `Cc1noc(C)c1S(=O)(=O)N[C@H](C)c1[nH]nc(-c2ccc(F)cc2)c1-c1ccncc1` [Example B-0476] was run?
A: 560 nM

Q: With `C[C@@H](NS(=O)(=O)c1cc(S(=O)(=O)c2ccccc2)cs1)c1[nH]nc(-c2ccc(F)cc2)c1-c1ccncc1` [Example B-0484] as the molecule, how does the IC50 read?
A: 280 nM

Q: With `C[C@@H](NS(=O)(=O)c1ccc(-c2ccon2)s1)c1[nH]nc(-c2ccc(F)cc2)c1-c1ccncc1` [Example B-0485] as the molecule, how does the IC50 read?
A: 40 nM

Q: Which IC50 does the source give for `Cc1ccc(S(C)(=O)=O)cc1S(=O)(=O)N[C@H](C)c1[nH]nc(-c2ccc(F)cc2)c1-c1ccncc1` [Example B-0491] here?
A: 430 nM

Q: How did the IC50 turn out when `C[C@@H](NC(=O)c1ccc(F)c(F)c1)c1[nH]nc(-c2ccc(F)cc2)c1-c1ccncc1` [Example B-0501] was run?
A: 49 nM

Q: How did the IC50 turn out when `Cc1cc(C)c(C(=O)N[C@H](C)c2[nH]nc(-c3ccc(F)cc3)c2-c2ccncc2)c(C)c1` [Example B-0505] was run?
A: 280 nM

Q: `C[C@@H](NC(=O)c1cccc(C(F)(F)F)c1F)c1[nH]nc(-c2ccc(F)cc2)c1-c1ccncc1` [Example B-0510] was tested. Which IC50 did it give?
A: 690 nM

Q: Which IC50 does the source give for `C[C@@H](NC(=O)c1ccc(F)c(C(F)(F)F)c1)c1[nH]nc(-c2ccc(F)cc2)c1-c1ccncc1` [Example B-0512] here?
A: 1000 nM

Q: With `Cc1cccc(C(=O)N[C@H](C)c2[nH]nc(-c3ccc(F)cc3)c2-c2ccncc2)c1` [Example B-0515] as the molecule, how does the IC50 read?
A: 420 nM

Q: How did the IC50 turn out when `C[C@@H](NC(=O)c1ccc(Cl)cc1Cl)c1[nH]nc(-c2ccc(F)cc2)c1-c1ccncc1` [Example B-0516] was run?
A: 370 nM

Q: How did the IC50 turn out when `C[C@@H](NC(=O)c1cccc(Cl)c1)c1[nH]nc(-c2ccc(F)cc2)c1-c1ccncc1` [Example B-0525] was run?
A: 160 nM

Q: `CC(=O)NC(C)c1[nH]nc(-c2ccc(F)cc2)c1-c1ccncc1` (stereo not shown) [Example B-0536] was tested. Which IC50 did it give?
A: 460 nM

Q: With `Cc1ccc(C(=O)NC(C)c2[nH]nc(-c3ccc(F)cc3)c2-c2ccncc2)cc1` (stereo not shown) [Example B-0551] as the molecule, how does the IC50 read?
A: 1080 nM

Q: With `COc1cccc(C(=O)NC(C)c2[nH]nc(-c3ccc(F)cc3)c2-c2ccncc2)c1` (stereo not shown) [Example B-0557] as the molecule, how does the IC50 read?
A: 1370 nM

Q: With `CC(NS(=O)(=O)c1ccccc1C#N)c1[nH]nc(-c2ccc(F)cc2)c1-c1ccncc1` (stereo not shown) [Example B-0627] as the molecule, how does the IC50 read?
A: 250 nM

Q: With `COc1ccc(Cl)cc1S(=O)(=O)NC(C)c1[nH]nc(-c2ccc(F)cc2)c1-c1ccncc1` (stereo not shown) [Example B-0655] as the molecule, how does the IC50 read?
A: 1250 nM

Q: For `CC(NS(=O)(=O)c1ccc(-c2ccccc2)cc1)c1[nH]nc(-c2ccc(F)cc2)c1-c1ccncc1` (stereo not shown) [Example B-0658], which IC50 is on record?
A: 1140 nM

Q: With `CC(NC(=O)c1cccc(C(F)(F)F)c1)c1[nH]nc(-c2ccc(F)cc2)c1-c1ccncc1` (stereo not shown) [Example B-0672] as the molecule, how does the IC50 read?
A: 6590 nM

Q: How did the IC50 turn out when `CC(NC(=O)c1cc(F)cc(F)c1)c1[nH]nc(-c2ccc(F)cc2)c1-c1ccncc1` (stereo not shown) [Example B-0679] was run?
A: 62 nM

Q: `CC(NC(=O)c1ccc(F)cc1C(F)(F)F)c1[nH]nc(-c2ccc(F)cc2)c1-c1ccncc1` (stereo not shown) [Example B-0688] was tested. Which IC50 did it give?
A: 660 nM

Q: How did the IC50 turn out when `CCCS(=O)(=O)NC(Cc1ccccc1)c1[nH]nc(-c2ccc(F)cc2)c1-c1ccncc1` (stereo not shown) [Example B-0715] was run?
A: 3200 nM

Q: Which IC50 does the source give for `CCS(=O)(=O)NC(Cc1ccccc1)c1[nH]nc(-c2ccc(F)cc2)c1-c1ccncc1` (stereo not shown) [Example B-0717] here?
A: 4300 nM

Q: How did the IC50 turn out when `NC(=O)NC(Cc1ccccc1)c1[nH]nc(-c2ccc(F)cc2)c1-c1ccncc1` (stereo not shown) [Example B-0724] was run?
A: 60 nM

Q: With `CS(=O)(=O)NC(Cc1ccccc1)c1[nH]nc(-c2ccc(F)cc2)c1-c1ccncc1` (stereo not shown) [Example B-0763] as the molecule, how does the IC50 read?
A: 15 nM
